Measured values published in US10807959B2, “WDR5-MLL1 inhibitors and modulators” (Vanderbilt University, priority 2018, dated 2020).
pKi: −log10 of the molar value. Read-outs that look alike come from different tables or passages of the source.

Molecular target: WDR5 (Homo sapiens (Human), UniProt P61964)
Assay: TR-FRET binding assay, displacement of 10mer-Thr-FAM probe from His-tagged WDR5
Method: The LanthaScreenTM Elite Tb-anti-HIS Antibody from ThermoFisher Scientific was used for this purpose. […] The ratio of the 520 and 495 signals are then utilized to generate a dose-response curve to calculate an IC50 value. […] WDR[…] tag protein is used at 2 nM.

[1] = Inhibition of WDR5 by TR-FRET assay

Row | SMILES | pKi [1] | pKi
1 | COc1ccc(CNC(=O)c2cc(CNC3=NCCN3)cc(-c3ccnc(C)c3)c2)cc1OC [Example 15, 3-(((4,5-dihydro-1H-imidazol-2-yl)amino)methyl)-N-(3,4-dimethoxybenzyl)-5-(2-methylpyridin-4-yl)benzamide] | 8.77 | 
2 | Cc1cnc(F)c(-c2cc(CNC3=NCCN3)cc(C(=O)NCc3cc(Cl)ccn3)c2)c1 [Example 38, N-((4-chloropyridin-2-yl)methyl)-3-(((4,5-dihydro-1H-imidazol-2-yl)amino)methyl)-5-(2-fluoro-5-methylpyridin-3-yl)benzamide] | 9.59 | 
3 | COc1ccnc(CNC(=O)c2cc(CNC3=NCCN3)cc(-c3cc(C)c(F)cc3C)c2)c1 [Example 51, 5-(((4,5-Dihydro-1H-imidazol-2-yl)amino)methyl)-4′-fluoro-N-((4-methoxypyridin-2-yl)methyl)-2′,5′-dimethyl-[1,1′-biphenyl]-3-carboxamide] | > 10.00 | 
4 | Cc1cc(C)cc(CNC(=O)c2cc(CNC3=NCCN3)cc(-c3ccnc(C)c3)c2)c1 [Example B90] |  | 9.94
5 | COc1cc(CN(C)C(=O)c2cc(CNC3=NCCN3)cc(-c3ccc(F)nc3C)c2)cc(OC)c1 [Example 8, 3-(((4,5-Dihydro-1H-imidazol-2-yl)amino)methyl)-N-(3,5-dimethoxybenzyl)-5-(6-fluoro-2-methylpyridin-3-yl)-N-methylbenzamide] | 7.92 | 
6 | Cc1cc(-c2cc(CNC3=NCCN3)cc(C(=O)NCc3cc(F)cc(Cl)c3)c2)ccn1 [Example 16, N-(3-chloro-5-fluorobenzyl)-3-(((4,5-dihydro-1H-imidazol-2-yl)amino)methyl)-5-(2-methylpyridin-4-yl)benzamide] | 9.28 | 
7 | COc1ccnc(CNC(=O)c2cc(CNC3=NCCN3)cc(-c3cc(OC)ccc3OC)c2)c1 [Example B115] |  | 9.32
8 | COc1cc(F)ccc1-c1cc(Cn2ccnc2C)cc(C(=O)NCc2ccc(Cl)c(Cl)c2)n1 [Example 165, N-(3,4-Dichlorobenzyl)-6-(4-fluoro-2-methoxyphenyl)-4-((2-methyl-1H-imidazol-1-yl)methyl)picolinamide] | 7.96 | 
9 | CCOc1ncc(C)cc1-c1cc(CNC2=NCCN2)cc(C(=O)NCc2ccc(Cl)c(Cl)c2)n1 [Example 88, N-(3,4-dichlorobenzyl)-4-(((4,5-dihydro-1H-imidazol-2-yl)amino)methyl)-2′-ethoxy-5′-methyl-[2,3′-bipyridine]-6-carboxamide] | 9.92 | 
10 | COc1cc(OC)cc(C(C)NC(=O)c2cc(CNC3=NCCN3)cc(C(F)(F)F)c2)c1 (centres unmarked) [Example 33, 3-(((4,5-Dihydro-1H-imidazol-2-yl)amino)methyl)-N-(1-(3,5-dimethoxyphenyl)ethyl)-5-(trifluoromethyl)benzamide] | 8.05 | 
11 | COc1cc(CNC(=O)c2cc(CNC3=NCCN3)cc(-c3cc(C)cnc3F)c2)cc(OC)c1 [Example B109] |  | 10.41
12 | Cc1cc(-c2cc(CNC(=N)N)cc(C(=O)NCc3ccc(Cl)cn3)c2)ccn1 [Example 103, N-((5-Chloropyridin-2-yl)methyl)-3-(guanidinomethyl)-5-(2-methylpyridin-4-yl)benzamide] | 8.48 | 
13 | COc1cc(OC)cc(C(C)NC(=O)c2cc(Cn3ccnc3C)cc(-c3cccc(CO)c3)n2)c1 (centres unmarked) [Example 157, N-(1-(3,5-dimethoxyphenyl)ethyl)-6-(3-(hydroxymethyl)phenyl)-4-((2-methyl-1H-imidazol-1-yl)methyl)picolinamide] | 7.57 | 
14 | COc1ncc(C)cc1-c1cc(CNC2=NCCN2)cc(C(=O)NCc2ccc(Cl)c(Cl)c2)n1 [Example 83, N-(3,4-Dichlorobenzyl)-4-(((4,5-dihydro-1H-imidazol-2-yl)amino)methyl)-2′-methoxy-5′-methyl-[2,3′-bipyridine]-6-carboxamide] | 9.51 | 
15 | COc1cc(CNC(=O)c2cc(CNC3=NCCC3)cc(-c3cccn3C)c2)cc(OC)c1 [Example 58, 3-(((3,4-Dihydro-2H-pyrrol-5-yl)amino)methyl)-N-(3,5-dimethoxybenzyl)-5-(1-methyl-1H-pyrrol-2-yl)benzamide] | 8.24 | 
16 | COc1ccnc(CNC(=O)c2cc(CNC3=NCCN3)cc(-c3cc(C(C)C)ccc3OC)c2)c1 [Example 45, 5-(((4,5-dihydro-1H-imidazol-2-yl)amino)methyl)-5′-isopropyl-2′-methoxy-N-((4-methoxypyridin-2-yl)methyl)-[1,1′-biphenyl]-3-carboxamide] | 9.00 | 
17 | Cc1ccnc(C(NC(=O)c2cc(CNC3=NCCN3)cc(-c3cnccc3C)c2)C2CC2)c1 (centres unmarked) [Example 25, N-(cyclopropyl(4-methylpyridin-2-yl)methyl)-3-(((4,5-dihydro-1H-imidazol-2-yl)amino)methyl)-5-(4-methylpyridin-3-yl)benzamide] | 9.70 | 
18 | Cc1ccncc1-c1cc(CNC2=NCCN2)cc(C(=O)NC(C2CC2)C2CC2)c1 [Example B93] |  | 9.12
19 | Cc1cnc(F)c(-c2cc(CNC3=NCCN3)cc(C(=O)NCc3ccc(Cl)c(C)c3)c2)c1 [Example 42, N-(4-chloro-3-methylbenzyl)-3-(((4,5-dihydro-1H-imidazol-2-yl)amino)methyl)-5-(2-fluoro-5-methylpyridin-3-yl)benzamide] | > 10.00 | 

Row | SMILES | pKi [1] | pKi
20 | COc1cc(OC)cc(C(C)NC(=O)c2cc(CNC3=NCCN3)cc(-c3ccc(F)nc3C)n2)c1 (centres unmarked) [Example 75, 4-(((4,5-Dihydro-1H-imidazol-2-yl)amino)methyl)-N-(1-(3,5-dimethoxyphenyl)ethyl)-6′-fluoro-2′-methyl-[2,3′-bipyridine]-6-carboxamide] | 9.10 | 
21 | COc1ccnc(CNC(=O)c2cc(CNC3=NCCN3)cc(-c3ccnc(C)c3)c2)c1 [Example 21, 3-(((4,5-Dihydro-1H-imidazol-2-yl)amino)methyl)-N-((4-methoxypyridin-2-yl)methyl)-5-(2-methylpyridin-4-yl)benzamide] | 9.41 | 
22 | COc1ccc(C(=O)NCc2ccc(Cl)c(Cl)c2)cc1CNC1=NCCN1 [Example B28] |  | 9.21
23 | CC1(NC(=O)c2cc(Cn3ccnc3)cc(-c3ccc(F)cc3Cl)c2)CCCC1 [Example 138, 5-((1H-Imidazol-1-yl)methyl)-2′-chloro-4′-fluoro-N-(1-methylcyclopentyl)-[1,1′-biphenyl]-3-carboxamide] | 7.30 | 
24 | Cc1ccc(CNC(=O)c2cc(CNC3=NCCN3)cc(-c3ccnc(C)c3)c2)cn1 [Example 26, 3-(((4,5-dihydro-1H-imidazol-2-yl)amino)methyl)-N-((6-methylpyridin-3-yl)methyl)-5-(2-methylpyridin-4-yl)benzamide] | 8.52 | 
25 | COc1ccnc(CNC(=O)c2cc(CNC3=NCCN3)cc(-c3cc(F)cnc3OC)c2)c1 [Example 48, 3-(((4,5-dihydro-1H-imidazol-2-yl)amino)methyl)-5-(5-fluoro-2-methoxypyridin-3-yl)-N-((4-methoxypyridin-2-yl)methyl)benzamide] | 9.20 | 
26 | COc1cc(CNC(=O)c2cc(CNC3=NCCN3)cc(-c3cnc(OC)c(Cl)c3)c2)cc(OC)c1 [Example 34, 3-(5-Chloro-6-methoxypyridin-3-yl)-5-(((4,5-dihydro-1H-imidazol-2-yl)amino)methyl)-N-(3,5-dimethoxybenzyl)benzamide] | 9.43 | 
27 | COc1ccnc(CNC(=O)c2cc(CNC3=NCCN3)cc(-c3ccc(F)cc3C(F)(F)F)c2)c1 [Example 47, 5-(((4,5-dihydro-1H-imidazol-2-yl)amino)methyl)-4′-fluoro-N-((4-methoxypyridin-2-yl)methyl)-2′-(trifluoromethyl)-[1,1′-biphenyl]-3-carboxamide] | > 10.00 | 
28 | Cc1cc(-c2cc(CNC3=NCCC3)cc(C(=O)NCc3ccc(Cl)c(C)c3)c2)c(C)cc1F [Example 66, N-(4-Chloro-3-methylbenzyl)-5-(((3,4-dihydro-2H-pyrrol-5-yl)amino)methyl)-4′-fluoro-2′,5′-dimethyl-[1,1′-biphenyl]-3-carboxamide] | 9.42 | 
29 | Cc1cc(-c2cc(CNC3=NCCN3)cc(C(=O)NCc3ccc(Cl)c(Cl)c3)c2)cnc1F [Example B99] |  | 10.06
30 | O=C(NCc1ccc(Cl)c(Cl)c1)c1cc(CNC2=NCCN2)cc(-c2ccc(F)nc2F)n1 [Example C2] |  | 9.51
31 | COc1cc(CNC(=O)c2cc(CNC3=NCCN3)cc(-c3ccc(F)nc3C)c2)cc(OC)c1 [Example B63] |  | 9.88
32 | COc1cc(CNC(=O)c2cc(CNC3=NCCN3)cc(-c3cnc(F)c(C)c3)c2)cc(OC)c1 [Example 30, 3-(((4,5-Dihydro-1H-imidazol-2-yl)amino)methyl)-N-(3,5-dimethoxybenzyl)-5-(6-fluoro-5-methylpyridin-3-yl)benzamide] | 9.48 | 
33 | Cc1cc(-c2cc(CNC3=NCCN3)cc(C(=O)NCc3ccc(Cl)c(C)c3)c2)ccn1 [Example B84] |  | 9.93
34 | Cc1ccnc(C(NC(=O)c2cc(Cn3ccnc3C)cc(N3CCOCC3)c2)C2CC2)c1 (centres unmarked) [Example 144, N-(cyclopropyl(4-methylpyridin-2-yl)methyl)-3-((2-methyl-1H-imidazol-1-yl)methyl)-5-morpholinobenzamide] | 8.32 | 
35 | O=C(NCc1ccc(Cl)c(Cl)c1)c1cc(F)c(F)c(CNC2=NCCN2)c1 [Example B33] |  | 9.35
36 | Cc1ncc(CNC(=O)c2cc(CNC3=NCCN3)cc(-c3ccc(F)nc3C)n2)cn1 [Example 80, 4-(((4,5-Dihydro-1H-imidazol-2-yl)amino)methyl)-6′-fluoro-2′-methyl-N-((2-methylpyrimidin-5-yl)methyl)-[2,3′-bipyridine]-6-carboxamide] | 7.66 | 
37 | COc1cc(OC)cc(C(C)NC(=O)c2cc(Cn3ccnc3C)cc(-c3ccc(F)cc3OC)n2)c1 (centres unmarked) [Example 158, N-(1-(3,5-dimethoxyphenyl)ethyl)-6-(4-fluoro-2-methoxyphenyl)-4-((2-methyl-1H-imidazol-1-yl)methyl)picolinamide] | 8.10 | 
38 | Cc1cc(-c2cc(CNC3=NCCN3)cc(C(=O)NCc3ccc(Cl)c(Cl)c3)n2)ccn1 [Example 82, N-(3,4-Dichlorobenzyl)-4-(((4,5-dihydro-1H-imidazol-2-yl)amino)methyl)-2′-methyl-[2,4′-bipyridine]-6-carboxamide] | 9.34 | 
